Laboratory results reported in publication PMC9079729, “Conservation of the conformational dynamics and ligand binding within M49 enzyme family” (RSC Advances, 2018).
Residues, ends and D or L forms follow the SMILES beside them.

Biological target: T1, yDPP III (Saccharomyces cerevisiae, UniProt Q08225)
T1 construct: His6 (C); made in house; host or cells: E. coli
T1 sequence (Q08225 1-711): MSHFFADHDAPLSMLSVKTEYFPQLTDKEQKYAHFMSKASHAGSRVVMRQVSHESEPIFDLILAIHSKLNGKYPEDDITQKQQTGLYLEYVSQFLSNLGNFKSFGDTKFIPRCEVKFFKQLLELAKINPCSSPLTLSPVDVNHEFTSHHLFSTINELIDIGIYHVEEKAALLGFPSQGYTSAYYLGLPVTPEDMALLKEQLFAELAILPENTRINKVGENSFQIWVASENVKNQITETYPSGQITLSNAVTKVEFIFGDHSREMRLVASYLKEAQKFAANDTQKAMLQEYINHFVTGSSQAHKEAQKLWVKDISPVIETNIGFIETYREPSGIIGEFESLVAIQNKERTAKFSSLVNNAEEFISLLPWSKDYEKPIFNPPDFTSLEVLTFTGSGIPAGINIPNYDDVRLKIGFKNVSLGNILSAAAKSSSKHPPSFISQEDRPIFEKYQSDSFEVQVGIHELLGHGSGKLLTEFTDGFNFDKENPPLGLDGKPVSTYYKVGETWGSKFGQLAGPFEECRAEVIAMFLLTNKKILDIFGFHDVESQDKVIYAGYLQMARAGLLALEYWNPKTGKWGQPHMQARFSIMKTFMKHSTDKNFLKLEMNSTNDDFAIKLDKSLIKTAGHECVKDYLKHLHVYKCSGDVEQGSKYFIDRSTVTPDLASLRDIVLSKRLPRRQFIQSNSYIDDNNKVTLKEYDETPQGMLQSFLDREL
Assay: Differential HDX-MS, unliganded vs. tynorphin complex
Format: binding, yeast (Saccharomyces cerevisiae)
Details: yDPP III peptide p42 (407-422)
Procedure: In the first step of the HDX analysis, optimization of digestion conditions and establishing a list of peptic peptides for all DPP III orthologues was carried out. With non-deuterated sample, a 5 μL aliquot of protein stock (between 35–50 μM in 20 mM Tris, pH 7.4) was diluted 10 times by adding 45 μL of 20 mM Tris, pH 7.4 (H2O reaction buffer). Next, the sample was acidified by mixing with 10 μL of 2 M glycine buffer, pH 2.5 (H2O stop buffer). The sample was subjected to online pepsin digestion using a 2.1 mm × 30 mm immobilized pepsin resin column (Porozyme, ABI, Foster City, CA) with 200 μL min^−1 flow of 0.07% formic acid in water as a mobile phase. Digested peptides were passed directly to the 2.1 mm × 5 mm C18 trapping column (Acquity BEH C18 VanGuard precolumn, 1.7 μm resin, Waters, Milford, MA). […]
Separate hydrogen deuterium exchange experiments were carried out for six unliganded DPP III enzymes, human V412I mutant, and their tynorphin complexes. […] The reaction buffer was prepared using D2O (99.8% Armar Chemicals, Switzerland), in which the pH (uncorrected meter reading) was adjusted using DCl or NaOD (Sigma). […] Relative deuterium uptake values are calculated without correction for back exchange. […]

CC(C)[C@H](N)C(=O)N[C@H](C(=O)N[C@@H](Cc1ccc(O)cc1)C(=O)N1CCC[C@H]1C(=O)N[C@@H](Cc1c[nH]c2ccccc12)C(=O)O)C(C)C [tynorphin] (H-VVYPW-OH)
deuterium incorporation decrease, fast exchanging conformation: less than 1%
deuterium incorporation decrease, slow exchanging conformation: more than 22%
